Tests used:
ovariectomized rats = assay: Bone mineral density after six weeks of repeated administration to ovariectomized rats; type: in vivo, rat; settings: once a day for six weeks, Compound 7 30 mg/kg oral
Protocol: Female Crl:CD(SD) rats obtained from Charles River Japan, Inc. were acclimated for one week or longer under standard laboratory conditions of 20° C. to 26° C. and 35% to 75% humidity, and then used in experiments. The rats had free access to tap water and a standard rodent diet (CE-2) (Clea Japan Inc.) containing 1.1% calcium, 1.0% phosphoric acid, and 250 IU/100 g vitamin D3.
Twelve-week old rats were subjected to removal of both ovaries by surgery (OVX) or to sham surgery (Sham). After the body weight was determined in the fourth week after surgery, the rats were divided into groups so that the average body weight of each group of six rats would be even. From the subsequent day after group division, each rat was subjected to repeated administration once a day for six weeks. The solvent for oral administration (vehicle) and the solvent for subcutaneous administration (PC buffer) were respectively administered orally and subcutaneously to rats of the Sham-Control group. Vehicle and PC buffer were orally and subcutaneously administered to rats of the OVX-Control group, respectively. To rats of OVX-Compound 7, the above-mentioned Compound 7 dissolved in the vehicle was orally administered at a dose of 30 mg/kg, and PC buffer was administered subcutaneously. To rats of the OVX-hPTH(1-34) group, the vehicle was orally administered, and hPTH(1-34) dissolved in PC buffer was subcutaneously administered at a dose of 0.9 nmol/kg.
The level of AUC (area under the curve for blood concentration vs. time) was the same as when 20 μg of Forteo®, a therapeutic agent clinically used for osteoporosis, is administered to humans when the administration dose for rats was set to 0.9 nmol/kg. The administration doses were 5 mL/kg for oral administration and 1 mL/kg for subcutaneous administration in all groups. The vehicle used was a composition prepared from 10% dimethyl sulfoxide (Wako Pure Chemical Industries, Ltd.), 10% Kolliphor EL (Sigma-Aldrich Japan), and 10% hydroxypropyl-β-cyclodextrin (Nihon Shokuhin Kako Co., Ltd), whose pH was adjusted to 10 using glycine (Wako Pure Chemical Industries, Ltd.) and sodium hydroxide (Wako Pure Chemical Industries, Ltd.). The PC buffer used was a composition prepared from 25 mmol/L phosphate-citrate buffer, 100 mmol/L NaCl, and 0.05% Tween80, adjusted to pH 5.0. […] The bone mineral densities of the lumbar spine and femur were determined using a dual X-ray bone mineral scanner (DCS-600EX, Aloka). The lumbar spine bone mineral density was determined by measuring the second to fourth lumbar vertebrae; and the femur bone mineral density was determined by vertically dividing the femur into ten parts, and measuring the three parts at the distal end of the knees. […]

[1] = test system: human articular chondrocytes; assay: Proteoglycan synthesis by human articular chondrocytes (35S-sulfate incorporation); type: cell-based; settings: cultured for 13 days
Protocol: After purchase of cryopreserved human articular chondrocytes (Lot 2867, Cell Applications Inc.), the cells were thawed in a 37° C. water bath, 15 mL of Basal Medium supplemented with 10% Growth Supplement (Growth Medium, Cell Applications Inc.) was placed in a T75 culture flask (CORNING, Corning Japan K. K.) to culture the cells, and exchanged the next day with 15 mL of Growth Medium; and the cells were cultured for three days. Growth Medium was then removed, and HBSS (Cell Applications Inc.) was used to wash the chondrocyte layer. With addition of 1 mL of trypsin/EDTA solution (Cell Applications Inc.), this was left to stand at room temperature for approximately five minutes, and chondrocytes were detached from the flask. With 10 mL of Neutralization solution (Cell Applications Inc.) added, Bulker-Turk hemocytometer was used to determine the cell count, and the cells were then transferred to a 15-mL test tube for centrifugation (1,200 rpm for five minutes, Tomy Seiko Co., Ltd.) to produce a chondrocyte pellet. The supernatant was discarded, and the cells were placed in a 1.2% sodium alginate solution (25 mmol/L HEPES/150 mmol/L sodium chloride solution, pH7.0) at 2×10^6 cells/mL. This was drawn into a 1-mL syringe (Terumo Corporation) equipped with a 22G injection needle, five drops were added to each well of a 24-well plate (Corning Japan K.K.) containing 2 mL of 102 mmol/L aqueous CaCl2 solution, and this was left to stand for five minutes to form beads. Subsequently, this was washed three times with a 150 mmol/L sodium chloride solution and incubated for one day in Growth Medium, and the medium was exchanged with Basal Medium supplemented with 1% Growth supplement (Cell Applications Inc.). In this procedure, the following factors were added to the medium, and the cells were cultured for 13 days with three times of medium exchange performed per week.
On day 12 of culturing, ^35S-labeled sulfuric acid (PerkinElmer Japan Co., Ltd.) was added at 370 kBq/well, and the medium was collected 24 hours later into a test tube and stored at 4° C. To the alginate gel, a 55 mmol/L sodium citrate solution (Nacalai Tesque, Inc.; 1 mL/well) was added, and this was incubated at 37° C. for ten minutes for solation. This was collected into a microtube (Eppendorf AG) and then centrifuged (1,200 rpm, five minutes) to produce a chondrocyte pellet. […] The glass filter was transferred to a liquid scintillation counter vial, 5 mL of scintillator (Hionic-Fluor, PerkinElmer Japan Co., Ltd.) was added and radioactivity was measured on a liquid scintillation counter (TRI-CARB, PerkinElmer Japan Co., Ltd.).
The remaining 0.1 mL of the digested solution was used for DNA quantification. […]

## Cc1cc(N2C(=O)NC(=O)C2(C)C)cc(C)c1CCS(=O)(=O)N1CCC2(CC1)N=C(c1ccc(OC(F)(F)F)cc1)NC2=O [Compound 7, 1-(3,5-dimethyl-4-(2-((4-oxo-2-(4-(trifluoromethoxy)phenyl)-1,3,8-triazaspiro[4.5]deca-1-en-8-yl)sulfonyl)ethyl)phenyl)-5,5-dimethylimidazolidine-2,4-dione]
Ovariectomized rats
  lumbar spine bone mineral density with respect to the OVX-Control group (in words): increasing trend
Ovariectomized rats; hPTH(1-34) 0.9 nmol/kg subcutaneous
  percentage of increase in femur bone mineral density with respect to the OVX-Control group: 12%
[1]; 10^−5 mol/L
  radioactivity (proteoglycan synthesis, cpm/μg DNA) relative to the vehicle control: 10 fold
[1]; 10^−6 mol/L
  radioactivity (proteoglycan synthesis, cpm/μg DNA) relative to the vehicle control: 3 fold

From patent US9993462B2, “Hydantoin derivative-containing pharmaceutical composition” (Chugai Seiyaku Kabushiki Kaisha, priority 2014, dated 2018)
